Patent US20200030278A1, “PHARMACEUTICAL COMPOSITIONS OF METAP-2 INHIBITORS” (Zafgen, Inc., priority 2017, published 2020)
Where two headings read alike, the source gives them in different places.

Key:
[1] = Hepatocyte incubation, metabolic profile, rat; type: in vitro ADME
[2] = Pharmacokinetic study in dogs, single s.c. injection (Example 3); conditions: both, beagle, dog, plasma, sc, 0.6 mg/kg
Experimental: (§3) Male and female beagle dogs of 9 to 11 months of age for PK characterization were individually housed at the testing facility Approximately 325 g of pelleted food was provided daily. […] Animals were observed twice daily for signs of ill health, morbidity, mortality, injury, and viability, and detailed clinical observations were conducted daily (including urine/fecal examination and hands-on examination). Food was weighed daily, and body weights were recorded at least weekly.
(§4) Samples were collected in tubes containing lithium heparin and processed for plasma by centrifugation (10 minutes at 3000 rpm). Supernatant was removed and stored frozen (−70° C.) until processed (BASi, West Lafayette, Ind.). Plasma drug concentration data were used to calculate PK parameters for individual concentration data using noncompartmental PK methods in Watson™ version 7.3.0.01 (Thermo Fisher Scientific, Inc., Waltham, Mass.).

[3] = Pharmacokinetics after subcutaneous administration in humans; type: in vivo, Human
From the text: (§1) Assessment of differences in pharmacokinetics following subcutaneous administration reflect both differences in the pharmacokinetic properties of the compounds and differences in pharmaceutical factors that affect absorption of the formulations from the injection sites.

[4] = Pharmacokinetics after subcutaneous administration in dogs; type: in vivo; conditions: plasma; Dog, SC, 1 mg/kg
Experimental: (§2) Animal experiments were performed in accordance with the Guide for the Care and Use of Laboratory Animals as adopted and promulgated by the U.S. National Institutes of Health or local equivalent and were approved by the Institution's Animal Care and Use Committee or local equivalent. Unless described otherwise, animals (mouse, rat, and dog studies) were maintained under standard conditions (12-hour light/dark cycle and approximately 21±4° C. and 55±15% relative humidity), and food (Rodent pellet chow [Research Diets, Brunswick N.J., or similar] or canine pellet [Certified Dog Diet 2021C, Harlan Teklad Diets, Madison, Wis.] or canned [i.e., Cesar® Mars Petcare, Victoria, Australia]) and water were available ad libitum. Unless described otherwise, drug formulations were administered s.c. daily (efficacy studies) or every 3 days (Q3D; safety studies).
as §1

[5] = Protein binding in rat plasma (dialysis); type: in vitro ADME; conditions: Rat Plasma, read-out: % Bound (converted)
[6] = Protein binding in human plasma (dialysis); type: in vitro ADME; conditions: Human Plasma, read-out: % Bound (converted)
plasma proteins [7] = test: Protein binding in human plasma (dialysis); type: in vitro ADME; conditions: plasma; human, summary over concentrations; read-out: bound to plasma proteins
[8] = Pharmacokinetics after subcutaneous administration in rabbits; type: in vivo, Rabbit
From the text: as §1

[9] = dog, in vivo, sc
Experimental: as §3, §4

[10] = Protein binding in dog plasma (dialysis); type: in vitro ADME; conditions: Dog Plasma, read-out: % Bound (converted)
plasma proteins [11] = test: Protein binding in dog plasma (dialysis); type: in vitro ADME; conditions: plasma; dog, summary over concentrations; read-out: bound to plasma proteins
[12] = pKa (physicochemical properties)
Solubility (pH 7) = type: physicochemical; conditions: pH 7, aqueous buffer
[13] = Protein binding in mouse plasma (dialysis); type: in vitro ADME; conditions: read-out: % Bound (converted)
[14] = Pharmacokinetics after intravenous administration in rats; conditions: in vivo, Rat, IV Bolus, 1 mg/kg
Experimental: as §2

[15] = Hepatocyte incubation, metabolic profile, human; type: in vitro ADME
[16] = Hepatocyte incubation, metabolic profile, dog; type: in vitro ADME
[17] = Pharmacokinetics after subcutaneous administration in rats; type: in vivo; conditions: plasma; Rat, SC, 6 mg/kg
Experimental: as §2, §1

[18] = Red blood cell partitioning; type: in vitro ADME; conditions: Compound A compared with beloranib
[19] = Duration of plasma exposure after subcutaneous dosing, summary over species; type: in vivo, rat, dog, rabbit, human
[20] = Toxicology study in the rat, s.c. Q3D for 28 days; type: in vivo, Sprague Dawley rats; conditions: for NOAEL at 28 days / AUC(0-t) / Cmax: Sprague Dawley; for AUC(0-t) / Cmax: 6 mg/kg, NOAEL 6 mg/kg; for AUC(0-t): read-out: AUC0-t at NOAEL
Experimental: Male and female Sprague Dawley rats 9-10 weeks of age (Envigo RMS, Inc., Indianapolis, Ind. or Orient Bio Inc., Gyeonggi-do, South Korea) were individually housed at the testing facility. […] Animals were allocated to treatment groups based on body weight, and body weight and food consumption were recorded weekly. […] At necropsy, macroscopic pathologic findings were recorded, sperm motility and morphology were determined, selected organs were weighed, and selected tissues were collected for microscopic examination.

[21] = Pharmacokinetics after intravenous administration in dogs; conditions: in vivo, Dog, IV Bolus, 1 mg/kg
Experimental: as §2

[22] = logD7.4 (physicochemical properties); conditions: pH 7.4
[23] = female, rat, in vivo, sc, Day 1, female rats
[24] = female, rat, in vivo, sc, Day 28, female rats
[25] = male, rat, in vivo, sc, Day 28, male rats

CO[C@@H]1[C@H](OC(=O)N2CC(CCN3CCOCC3)C2)CC[C@]2(CO2)[C@H]1[C@@]1(C)O[C@@H]1CC=C(C)C [Compound A]
metabolic profile / predominant pathway in hepatocytes [1]: higher amount of GSH-metabolism than for dog and human hepatocytes | half-life [2]: 24 min | Cmax ([3]; Human, SC, 2.4 mg): 13.5 ± 2.7 ng/mL | Tmax ([3]; Human, SC, 2.4 mg): 15 ± 0 min | kel ([3]; Human, SC, 2.4 mg): 1.09 ± 0.34 h⁻¹ | Vdss ([3]; Human, SC, 2.4 mg, estimated from subcutaneous dosing): 3.78 ± 1.54 L/kg | plasma concentration at 8 hours after dosing ([3]; humans, 2.4 mg subcutaneous dose): not quantifiable | AUC(0-inf) ([3]; plasma, Human, SC, 2.4 mg): 8.05 ± 1.42 ng·h/mL | half-life ([3]; plasma, Human, SC, 2.4 mg): 40.9 ± 11.9 min | AUC(0-t) [4]: 348 ± 42 ng·h/mL | Cmax [4]: 122 ± 29 ng/mL | Tmax [4]: 55 ± 10 min | half-life [4]: 62.4 ± 18 min | fraction unbound at 4 h, 5 nM ([5]; intended 5 nM, actual 3.64 nM at end of 4-hour dialysis): 0.323 | fraction unbound at 4 h, 10 nM ([5]; intended 10 nM, actual 7.60 nM): 0.29 | fraction unbound at 4 h, 50 nM ([5]; intended 50 nM, actual 39.7 nM): 0.426 | fraction unbound at 4 h, 100 nM ([5]; intended 100 nM, actual 76.0 nM): 0.466 | fraction unbound at 4 h, 500 nM ([5]; intended 500 nM, actual 370 nM): 0.451 | fraction unbound at 4 h, 1000 nM ([5]; intended 1000 nM, actual 595 nM): 0.566 | fraction unbound at 4 h, 5 nM ([6]; intended 5 nM, actual 1.49 nM at end of 4-hour dialysis): 0.664 | fraction unbound at 4 h, 10 nM ([6]; intended 10 nM, actual 3.14 nM): 0.681 | fraction unbound at 4 h, 50 nM ([6]; intended 50 nM, actual 15.5 nM): 0.688 | fraction unbound at 4 h, 100 nM ([6]; intended 100 nM, actual 32.7 nM): 0.694 | fraction unbound at 4 h, 500 nM ([6]; intended 500 nM, actual 165 nM): 0.704 | fraction unbound at 4 h, 1000 nM ([6]; intended 1000 nM, actual 338 nM): 0.748 | fraction unbound (plasma proteins [7]): 0.65 to 0.75 | AUC(0-t) ([8]; plasma, Rabbit, SC, 1 mg/kg): 207 ± 45 ng·h/mL | Cmax ([8]; plasma, Rabbit, SC, 1 mg/kg): 173 ± 34 ng/mL | Tmax ([8]; plasma, Rabbit, SC, 1 mg/kg): 19.8 ± 8.4 min | half-life ([8]; plasma, Rabbit, SC, 1 mg/kg): 36.9 ± 10.1 min | time after dosing at which plasma concentrations were below the lower limit of quantification ([8]; rabbit, subcutaneous, last sampling time 8 hours): ≤ 4 h | plasma concentration after the 4-hour timepoint [9]: undetectable | fraction unbound at 4 h, 5 nM ([10]; intended 5 nM, actual 3.17 nM at end of 4-hour dialysis): 0.311 | fraction unbound at 4 h, 10 nM ([10]; intended 10 nM, actual 6.05 nM): 0.406 | fraction unbound at 4 h, 50 nM ([10]; intended 50 nM, actual 32.0 nM): 0.326 | fraction unbound at 4 h, 100 nM ([10]; intended 100 nM, actual 59.1 nM): 0.403 | fraction unbound at 4 h, 500 nM ([10]; intended 500 nM, actual 320 nM): 0.457 | fraction unbound at 4 h, 1000 nM ([10]; intended 1000 nM, actual 527 nM): 0.469 | fraction unbound at 4 h (plasma proteins [11]): 0.3 to 0.6 | pKa [12]: 7.17 | solubility (Solubility (pH 7)): > 100 mg/mL | fraction unbound at 4 h, 5 nM ([13]; intended 5 nM, actual 5.20 nM at end of 4-hour dialysis): 0.298 | fraction unbound at 4 h, 10 nM ([13]; intended 10 nM, actual 11.1 nM): 0.293 | fraction unbound at 4 h, 50 nM ([13]; intended 50 nM, actual 56.4 nM): 0.302 | fraction unbound at 4 h, 100 nM ([13]; intended 100 nM, actual 112 nM): 0.333 | fraction unbound at 4 h, 500 nM ([13]; intended 500 nM, actual 496 nM): 0.377 | fraction unbound at 4 h, 1000 nM ([13]; intended 1000 nM, actual 868 nM): 0.46 | clearance ([14]; kel and dependent parameters estimated using two time points): 252 mL/min/kg | half-life ([14]; kel and dependent parameters estimated using two time points (1 and 2 hours)): 93 ± 62.4 min | Vd ([14]; kel and dependent parameters estimated using two time points, read-out: Vdss): 2.11 ± 0.1 L/kg | metabolic profile / predominant pathway in hepatocytes [15]: oxidative (CYP-mediated) metabolism being predominant | metabolic profile / predominant pathway in hepatocytes [16]: oxidative (CYP-mediated) metabolism being predominant | AUC(0-t) [17]: 391 ± 54 ng·h/mL | Cmax [17]: 323 ± 26 ng/mL | Tmax [17]: 17.5 ± 5.04 min | red blood cell partitioning [18]: similar | time for concentrations in plasma to return to baseline ([19]; all species): ≤ 8 h | interval between doses with plasma concentrations at background / minimal exposure ([19]; dosing once every 3 days in animals and twice a week in humans): approximately 54 hours | NOAEL at 28 days ([20]; rat, in vivo, sc, female rats, s.c. Q3D, 4 weeks, read-out: NOAEL (F)): 6 mg/kg | NOAEL at 28 days ([20]; rat, in vivo, sc, male rats, s.c. Q3D, 4 weeks, read-out: NOAEL): 6 mg/kg | AUC(0-t) ([20]; both sexes, rat, in vivo, sc, Day 1, male rats): 349 ng·h/mL | Cmax [20, 23]: 278 ng/mL | AUC(0-t) [20, 23]: 262 ng·h/mL | Cmax [20, 24]: 412 ng/mL | AUC(0-t) [20, 24]: 288 ng·h/mL | Cmax ([20]; male, rat, in vivo, sc, Day 1, male rats): 351 ng/mL | Cmax [20, 25]: 426 ng/mL | AUC(0-t) [20, 25]: 409 ng·h/mL | tolerability of the highest dose ([20]; rat, in vivo, sc, 25 mg/kg): well tolerated | Mortality/early euthanasia ([20]; rats, s.c. Q3D, 4 weeks): no mortality and None | clearance [21]: 45.3 mL/min/kg | half-life [21]: 39.7 ± 6.06 min | Vd ([21]; read-out: Vdss): 1.48 ± 0.17 L/kg | logD7.4 [22]: 2.28
